Like-named read-outs stand apart in the source and are kept apart here.
Experiments:
[1] = system: TNFα production in human whole blood; assay: Inhibition of the production of TNFα in vitro in human whole blood (Test Examples 1 and 1′); format: cell-based; details: 6 hours at 37° C., plasma TNFα by ELISA
Protocol: (§1) Inhibition of the Production of the Cytokines IL-1β and TNFα in Vitro in Human Whole Blood
(§2) This test was performed according to the method of Hartman, et al. [D. A. Hartman, S. J. Ochalski and R. P. Carlson; The effects of anti-inflammatory and antiallergic drugs on cytokine release after stimulation of human whole blood by lipopolysaccharide and zymosan A: Inflamm. Res., 44, 269 (1995)].
(§3) Peripheral blood samples were collected in the presence of heparin from healthy adult volunteers. 1000 μl of whole blood were added to an Eppendorf tube to which 2 μl of a dimethyl sulfoxide solution of the test compound had been added in advance, after which 10 μl of lipopolysaccharide (E. coli 026: B6 origin, Difco) were added as a stimulant (final concentration of said lipopolysaccharide: 10 μg/ml). This was mixed well and then incubated for 6 hours at 37° C. in the presence of 5% CO2. At the end of the incubation, the mixture was cooled to 4° C. to stop the reaction, followed immediately by centrifuging for 5 minutes at 14,000 rpm to separate and collect the supernatant plasma. The IL-1β and TNFα produced and released into the plasma were measured using a commercially available enzyme immunoassay (ELISA) kit [Cayman (IL-1β) and Genzyme (TNFα)]. The procedure was also repeated in the absence of test compound. The inhibitory effect [IC50 (μM)] on the production of IL-1β and TNFα was determined from the amounts of the cytokines produced in the presence and absence of the test compound.
(§4) Inhibition of the Production of the Cytokines IL-1β and TNFα In Vitro in Human Whole Blood
as §3, with “O26:” for “026:”, “plasma” for “plasma.”, “kits” for “kit”, “determined by the method of least squares” for “determined”

[2] = system: IL-1β production in human whole blood; assay: Inhibition of the production of IL-1β in vitro in human whole blood (Test Examples 1 and 1′); format: cell-based; details: Table 8′, lipopolysaccharide 10 μg/ml, 6 hours at 37° C., plasma IL-1β by ELISA, least squares, read-out: Inhibitory Effect on IL-1β Production (in vitro) IC50
Protocol: as §1, §2, §3, §4
as §3, with “O26:” for “026:”, “plasma” for “plasma.”, “kits” for “kit”, “determined by the method of least squares” for “determined”

[3] = Table 3, lipopolysaccharide 10 μg/ml, read-out: Inhibitory Effect on TNFα Production [IC50 (μM)]
[4] = Table 7′, lipopolysaccharide 10 μg/ml, least squares, read-out: Inhibitory Effect on TNFα Production (in vitro) IC50

SMILES	IC50 [1, 3] [µM]	IC50 [1, 4] [µM]	IC50 [2] [nM]
Fc1ccc(-c2[nH]cc(C3=CC4CCC(C3)N4)c2-c2ccncc2)cc1 (racemic) [Example 45, (±)-4-(8-Azabicyclo[3.2.1]oct-2-en-3-yl)-2-(4-fluorophenyl)-3-(pyridin-4-yl)-1H-pyrrole]	0.14		
Fc1ccc(-c2[nH]cc(C3=CC4CC5(CCCC5)CN4CC3)c2-c2ccncc2)cc1 (racemic) [Example 47′, (±)-4-[Cyclopentanespiro-2′-(1′,2′,3′,5′,6′,8a′-hexahydroindolizin)-7′-yl]-2-(4-fluorophenyl)-3-(pyridin-4-yl)-1H-pyrrole]		0.01	33
Fc1ccc(-c2[nH]cc(C3=CC4CCCN4CC3)c2-c2ccncc2)cc1 (racemic) [Example 60, (±)-2-(4-Fluorophenyl)-4-(1,2,3,5,6,8a-hexahydroindolizin-7-yl)-3-(pyridin-4-yl)-1H-pyrrole]	0.047		
CCCN1CCC(c2c[nH]c(-c3ccc(F)cc3)c2-c2ccncc2)=CC1C (racemic) [Example 85, (±)-2-(4-Fluorophenyl)-4-(6-methyl-1-propyl-1,2,3,6-tetrahydropyridin-4-yl)-3-(pyridin-4-yl)-1H-pyrrole]	0.44		
CCCN1CC=C(c2c[nH]c(-c3ccc(F)cc3)c2-c2ccncc2)CC1C (racemic) [Example 86, (±)-2-(4-Fluorophenyl)-4-(2-methyl-1-propyl-1,2,3,6-tetrahydropyridin-4-yl)-3-(pyridin-4-yl)-1H-pyrrole]	0.29		
Fc1ccc(-c2[nH]cc(C3=CC4CCCCN4CC3)c2-c2ccncc2)cc1 (racemic) [Example 87, (±)-2-(4-Fluorophenyl)-4-(1,3,4,6,7,9a-hexahydro-2H-quinolizin-8-yl)-3-(pyridin-4-yl)-1H-pyrrole]	0.31		
Fc1ccc(-c2[nH]cc(C3=CC4CCCN4CC3)c2-c2ccncc2)cc1F (racemic) [Example 92, (±)-2-(3,4-Difluorophenyl)-4-(1,2,3,5,6,8a-hexahydroindolizin-7-yl)-3-(pyridin-4-yl)-1H-pyrrole]	0.045		
FC(F)(F)c1cccc(-c2[nH]cc(C3=CC4CCCN4CC3)c2-c2ccncc2)c1 (racemic) [Example 94, (±)-4-(1,2,3,5,6,8a-Hexahydroindolizin-7-yl)-3-(pyridin-4-yl)-2-(3-trifluoromethylphenyl)-1H-pyrrole]	0.031		
Fc1ccc(-c2[nH]c(C3CCNCC3)cc2-c2ccncc2)cc1 [Compound A, reference compound]	1.9	1.9	
Fc1ccc(-c2ncn(C3CCNCC3)c2-c2ccncc2)cc1 [Compound B, reference compound]	1.73	1.73	
CO[C@@H]1C[C@H]2C=C(c3c[nH]c(-c4ccc(F)cc4)c3-c3ccncc3)CCN2C1 [Example 2′, 2-(4-Fluorophenyl)-4-[(2R,8aS)-2-methoxy-1,2,3,5,6,8a-hexahydroindolizin-7-yl]-3-(pyridin-4-yl)-1H-pyrrole]		0.062	31
O[C@@H]1C[C@H]2C=C(c3c[nH]c(-c4ccc(F)cc4)c3-c3ccncc3)CCN2C1 [Example 4′, 2-(4-Fluorophenyl)-4-[(2R,8aS)-2-hydroxy-1,2,3,5,6,8a-hexahydroindolizin-7-yl]-3-(pyridin-4-yl)-1H-pyrrole]		0.054	41
Fc1ccc(-c2[nH]cc(C3=C[C@@H]4C[C@H](Cl)CN4CC3)c2-c2ccncc2)cc1 [Example 6′, 4-[(2S,8aS)-2-Chloro-1,2,3,5,6,8a-hexahydroindolizin-7-yl]-2-(4-fluorophenyl)-3-(pyridin-4-yl)-1H-pyrrole]		0.027	
Fc1ccc(-c2[nH]cc(C3=CCN(CCc4ccccc4)CC3)c2-c2ccncc2)cc1 [Example 58, 2-(4-Fluorophenyl)-4-(1-phenethyl-1,2,3,6-tetrahydropyridin-4-yl)-3-(pyridin-4-yl)-1H-pyrrole]	0.089		
Fc1ccc(-c2[nH]cc(C3=C[C@@H]4CCCN4CC3)c2-c2ccncc2)cc1 [Example 83, (−)-2-(4-Fluorophenyl)-4-(1,2,3,5,6,8a-hexahydroindolizin-7-yl)-3-(pyridin-4-yl)-1H-pyrrole]	0.026		

From patent publication US7122666B2, “Heteroaryl-substituted pyrrole derivatives, their preparation and their therapeutic uses” (Sankyo Company, Limited, priority 1999, dated 2006)
